The values below come from article PMC6681416, “Novel Derivatives of Deoxycholic Acid Bearing Linear Aliphatic Diamine and Aminoalcohol Moieties and their Cyclic Analogs at the C3 Position: Synthesis and Evaluation of Their In Vitro Antitumor Potential” (Molecules, 2019).

Experiment [1] concerns caspase-3/7 in HuTu-80 cells. The experiment in a line: Caspase-3/-7 activity (Caspase-Glo 3/7). The format is cell-based, human. The following applies: 8 µM, 18 h and 24 h time points. The procedure: In the next step of the study our attention was focused on understanding the ability of compound 9 to activate caspases—a family of cysteine proteases, being critical mediators of apoptosis. In order to perform this, we evaluated the effect of compound 9 on activity of key executioner caspases-3 and -7 responsible for proteolytic cleavage of many proteins in the culminating step of cell death.
The caspase-3/-7 activity in HuTu-80 cells was assessed by using Caspase-Glo® 3/7 Assay kit (Promega, Madison, WI, USA) according to the manufacturer’s instructions. Briefly, the cells were seeded in white-walled 96-well plates at a density of 10^4 cells/well for 24. After incubation, cells were treated with compound 9 at 8 µM for 6, 18 or 24 h and then 100 µL of Caspase-Glo® 3/7 reagent was added to each well. The plate was carefully shaken for 30 sec on a plate mixer and afterwards incubated for 30 min at room temperature in the dark. The luminescence was detected using CLARIOstar plate reader (BMG Labtech, Ortenberg, Germany).

The test system of experiment [2] is panel of cultured cell lines (HuTu-80, HepG2, KB-3-1, A549, RAW264.7, hFF3). The experiment is described as follows: MTT cytotoxicity, range over the panel of tested cell lines. The format is cell-based. The settings on record: 24 h, summary of Table 1 (for 2–10 partly from ref [21]). The text has this: According to our previous data and data published by other research groups, chemical transformations of bile acids can greatly improve their antitumor potential. Thus, as the first step of evaluation of the biological activities of our novel DCA derivatives we assessed their effects on tumor cell viability. The cytotoxicity of the compounds was investigated with respect to a panel of cultured cell lines, including human duodenal HuTu-80, hepatocellular HepG2, cervical KB-3-1 and lung A549 carcinomas as well as murine macrophage RAW264.7 and non-transformed human fibroblasts hFF3 by MTT assay.
Cells were seeded in triplicate in 96-well plates at a density of 5 × 10^3 (HuTu-80, HepG2, KB-3-1, hFF3), 10^4 (A549) or 5 × 10^4 (RAW264.7) cells per well. Cells were incubated under standard conditions for 24 h and then they were treated with varying doses of investigated derivatives for subsequent 24 h. Then 10 µL of MTT solution (5 mg/mL) were added to each wells and cells were incubated for an additional 2 h under standard conditions. The crystals of formazan forming within live cells were solubilized with DMSO and the absorbance was measured in a Multiscan RC plate reader (Thermo LabSystems, Helsinki, Finland) at a test and reference wavelengths of 570 nm and 620 nm, respectively. […]

A word on the IC50: it is the concentration at which inhibition is half-maximal. With `COC(=O)CC[C@@H](C)[C@H]1CC[C@H]2[C@@H]3CC[C@@H]4CC(O)(CNCCCO)CC[C@]4(C)[C@H]3CC(=O)[C@]12C` (stereo partly drawn) [Compound 9, Methyl 3-hydroxy-3-((3-hydroxypropylamino)methyl)-12-oxo-5β-cholan-24-oate], the caspase-3/7 activity result in experiment [1] is on record as “significantly increased”. The same compound returned an IC50 in experiment [2] of 4 to 33.3 µM.
